Oligonucleotides are written 5' to 3', each unit as a sugar letter and its base; * is a phosphorothioate linkage, no mark a phosphodiester; rarer units and linkages stand in square brackets, end groups in braces. Plain capitals give the bases only. {Fethoc} = N-terminal Fethoc cap; [C(1O2)] = modified PNA monomer acting as cytosine, C(pOq) type, 1O2; [C(1O5)] = modified PNA monomer acting as cytosine, C(pOq) type, 1O5; [A(5)] = modified PNA monomer acting as adenine, A(p) type, p=5; [A(6)] = modified PNA monomer acting as adenine, A(p) type, p=6; [G(5)] = modified PNA monomer acting as guanine, G(p) type, p=5; [G(6)] = modified PNA monomer acting as guanine, G(p) type, p=6; [PNA-N] = PNA monomer with natural nucleobase (N: the base); {NH2} = C-terminal amide; [G(G)] = code of the source, not defined here; [Lys] = lysine residue in the chain; [Val] = valine residue in the chain; {Piv} = N-terminal pivaloyl group; {Fmoc} = N-terminal Fmoc cap
test system: complementary 10-mer DNA; experiment: Tm of 10-mer model PNA with complementary 10-mer DNA; type: binding; conditions: 4 μM PNA and 4 μM complementary 10-mer DNA, aqueous buffer pH 7.16, uncorrected
Procedure: The 10-mer PNA oligomers in Table 12 were evaluated for their binding affinity for the complementary 10-mer RNA or DNA by measuring Tm values as described below.
(§1) A mixed solution of 4 μM 10-mer PNA oligomer and 4 μM complementary 10-mer DNA or RNA in 4 mL aqueous buffer (pH 7.16, 10 mM sodium phosphate, 100 mM NaCl) in 15 mL polypropylene falcon tube was incubated at 90° C. for a minute and slowly cooled down to ambient temperature. Then the solution was transferred into a 4 mL quartz UV cuvette, and subjected to Tm measurement at 260 nm on a UV/Visible spectrophotometer as described in the prior art [PCT/KR2009/001256] or with minor modifications. The DNA and RNA for Tm measurement were purchased from Bioneer (www.bioneer.com, Dajeon, Republic of Korea) and used without further purification.

Substance	Tm [°C]
Fmoc-GTA(5)-GAT-CA(5)C-T-NH2 (GTAGATCACT; all peptide nucleic acid (PNA), [A(5)] at 3, 8, 5' {Fmoc}, 3' {NH2}; model 10-mer peptide nucleic acid written N to C) [PNA 10-3]	61
Fmoc-GTA-G(5)AT-CAC-T-NH2 (GTAGATCACT; all peptide nucleic acid (PNA), [G(5)] at 4, 5' {Fmoc}, 3' {NH2}; model 10-mer peptide nucleic acid written N to C) [PNA 10-5]	53

same assay, conditions: complementary 10-mer DNA

Substance	ΔTm (Tm value - Tm value of PNA 10-1)
Fmoc-GTA(5)-GAT-CA(5)C-T-NH2 (GTAGATCACT; all peptide nucleic acid (PNA), [A(5)] at 3, 8, 5' {Fmoc}, 3' {NH2}; model 10-mer peptide nucleic acid written N to C) [PNA 10-3]	+10 °C
Fmoc-GTA-G(5)AT-CAC-T-NH2 (GTAGATCACT; all peptide nucleic acid (PNA), [G(5)] at 4, 5' {Fmoc}, 3' {NH2}; model 10-mer peptide nucleic acid written N to C) [PNA 10-5]	+2 °C

test system: 10-mer complementary DNA; experiment: Tm between PNA derivatives and 10-mer complementary DNA (N- or C-terminal); type: binding; conditions: uncorrected
Procedure: as §1
PNA derivatives of Formula I were evaluated for their binding affinity for 10-mer DNAs complementarily targeting either the N-terminal or C-terminal. The binding affinity was assessed by the Tm value for the duplex between PNA and 10-mer complementary DNA. The duplex between PNA derivatives and DNAs of full complementarity usually show Tm values too high to be reliably determined in aqueous buffer solution. The aqueous buffer solution tends to boil off during Tm measurement.

Substance	Tm Value, 10-mer DNA against C-Terminal [°C]	Tm Value, 10-mer DNA against N-Terminal [°C]
Fethoc-A(5)AG-TG(6)T-A(5)CC(1O2)-TAA-A(5)-NH2 (AAGTGTACCTAAA; splice-switching; all peptide nucleic acid (PNA), [A(5)] at 1, 7, 13, [G(6)] at 5, [C(1O2)] at 9, 5' {Fethoc}, 3' {NH2}; peptide nucleic acid written N to C) [SCN-ASO 24]	66.0	77.0
Fethoc-A(5)GT-G(5)TA(5)-CC(1O2)T-A(5)AA(5)-C-NH2 (AGTGTACCTAAAC; splice-switching; all peptide nucleic acid (PNA), [A(5)] at 1, 6, 10, 12, [G(5)] at 4, [C(1O2)] at 8, 5' {Fethoc}, 3' {NH2}; peptide nucleic acid written N to C) [SCN-ASO 28]	70.0	78.1
Fethoc-A(6)GA-A(6)CT-CA(6)T-CC(1O2)T-A(6)CT-TA(6)-NH2 (antisense AGAACTCATCCTACTTA; all peptide nucleic acid (PNA), [A(6)] at 1, 4, 8, 13, 17, [C(1O2)] at 11, 5' {Fethoc}, 3' {NH2}; peptide nucleic acid written N to C) [HIF-ASO 11]	61.0	73.4
Fethoc-A(6)TT-TG(5)T-TA(6)C-C(1O2)CT-G(5)G-NH2 (ATTTGTTACCCTGG; all peptide nucleic acid (PNA), [A(6)] at 1, 8, [G(5)] at 5, 13, [C(1O2)] at 10, 5' {Fethoc}, 3' {NH2}; peptide nucleic acid written N to C) [SNAP-ASO 12]	74.0	62.0
Fethoc-A(6)TT-TG(G)T-TA(5)C-C(1O2)CT-G(5)-NH2 (antisense ATTTGTTACCCTG; all peptide nucleic acid (PNA), [A(6)] at 1, [G(G)] at 5, [A(5)] at 8, [C(1O2)] at 10, [G(5)] at 13, 5' {Fethoc}, 3' {NH2}; peptide nucleic acid written N to C) [SNAP-ASO 9]	76.0	62.0
Fethoc-AA(5)G-TG(5)T-A(5)CC(1O2)-TA(5)A-A(5)-NH2 (AAGTGTACCTAAA; splice-switching; all peptide nucleic acid (PNA), [A(5)] at 2, 7, 11, 13, [G(5)] at 5, [C(1O2)] at 9, 5' {Fethoc}, 3' {NH2}; peptide nucleic acid written N to C) [SCN-ASO 26]	72.0	75.0
Fethoc-AA(5)G-TG(6)T-A(5)CC(1O2)-TAA(5)-A-NH2 (AAGTGTACCTAAA; splice-switching; all peptide nucleic acid (PNA), [A(5)] at 2, 7, 12, [G(6)] at 5, [C(1O2)] at 9, 5' {Fethoc}, 3' {NH2}; peptide nucleic acid written N to C) [SCN-ASO 22]	65.0	74.0
Fethoc-AAG(6)-TG(6)T-A(5)CC(1O2)-TA(5)A-A-NH2 (AAGTGTACCTAAA; splice-switching; all peptide nucleic acid (PNA), [G(6)] at 3, 5, [A(5)] at 7, 11, [C(1O2)] at 9, 5' {Fethoc}, 3' {NH2}; peptide nucleic acid written N to C) [SCN-ASO 25]	66.0	78.0
Fethoc-C(1O5)TT-A(6)TC-CTA(6)-C(1O2)TT-AA(6)C-NH2 (CTTATCCTACTTAAC; all peptide nucleic acid (PNA), [C(1O5)] at 1, [A(6)] at 4, 9, 14, [C(1O2)] at 10, 5' {Fethoc}, 3' {NH2}; peptide nucleic acid backbone) [HIF-ASO 7]	61.0	69.0
Fethoc-CA(6)T-CA(6)T-TTG(5)-TTA(5)-CCC(1O2)-TG(5)-NH2 (CATCATTTGTTACCCTG; all peptide nucleic acid (PNA), [A(6)] at 2, 5, [G(5)] at 9, 17, [A(5)] at 12, [C(1O2)] at 15, 5' {Fethoc}, 3' {NH2}; peptide nucleic acid written N to C) [SNAP-ASO 10]	68.0	61.0
Fethoc-CA(6)T-TTG(5)-TTA(5)-CCC(1O2)-TG(5)-NH2 (antisense CATTTGTTACCCTG; all peptide nucleic acid (PNA), [A(6)] at 2, [G(5)] at 6, 14, [A(5)] at 9, [C(1O2)] at 12, 5' {Fethoc}, 3' {NH2}; peptide nucleic acid written N to C) [SNAP-ASO 8]	68.0	58.0
Fethoc-CTC(1O2)-A(6)TC-CTA(6)-C(1O2)TT-AA(6)C-NH2 (CTCATCCTACTTAAC; all peptide nucleic acid (PNA), [C(1O2)] at 3, 10, [A(6)] at 4, 9, 14, 5' {Fethoc}, 3' {NH2}; peptide nucleic acid backbone) [HIF-ASO 8]	61.0	73.0
Fethoc-CTT-A(5)CG(6)-C(1O2)AA(5)-AA(5)A-C(1O2)AA(5)-NH2 (CTTACGCAAAAACAA; all peptide nucleic acid (PNA), [A(5)] at 4, 9, 11, 15, [G(6)] at 6, [C(1O2)] at 7, 13, 5' {Fethoc}, 3' {NH2}; peptide nucleic acid written N to C) [SCN-ASO 12]	77.0	76.0
Fethoc-G(5)AA(6)-CTT-A(6)TC-CTA(6)-C(1O2)T-NH2 (GAACTTATCCTACT; splice-switching; all peptide nucleic acid (PNA), [G(5)] at 1, [A(6)] at 3, 7, 12, [C(1O2)] at 13, 5' {Fethoc}, 3' {NH2}; peptide nucleic acid backbone) [HIF-ASO 5]	58.0	62.0
Fethoc-GA(5)A-C(1O2)TT-A(5)TC-CTA(5)-CT-NH2 (GAACTTATCCTACT; splice-switching; all peptide nucleic acid (PNA), [A(5)] at 2, 7, 12, [C(1O2)] at 4, 5' {Fethoc}, 3' {NH2}; peptide nucleic acid backbone) [HIF-ASO 4]	53.4	66.0
Fethoc-TA(5)C-CAG(6)-GC(1O2)A-A(5)GG(6)-C-NH2 (antisense TACCAGGCAAGGC; all peptide nucleic acid (PNA), [A(5)] at 2, 10, [G(6)] at 6, 12, [C(1O2)] at 8, 5' {Fethoc}, 3' {NH2}; peptide nucleic acid backbone) [AR-ASO 4]	84.5	84.3
Fethoc-TG(5)T-TA(6)C-C(1O2)CT-GG(5)G-A(5)-NH2 (TGTTACCCTGGGA; all peptide nucleic acid (PNA), [G(5)] at 2, 11, [A(6)] at 5, [C(1O2)] at 7, [A(5)] at 13, 5' {Fethoc}, 3' {NH2}; peptide nucleic acid written N to C) [SNAP-ASO 2]	87.6	76.0
Fethoc-TG(6)T-TA(5)A-A(5)TA(5)-CGC(1O2)-AA(5)A-A(5)A-NH2 (TGTTAAATACGCAAAAA; all peptide nucleic acid (PNA), [G(6)] at 2, [A(5)] at 5, 7, 9, 14, 16, [C(1O2)] at 12, 5' {Fethoc}, 3' {NH2}; peptide nucleic acid written N to C) [SCN-ASO 4]	71.6	63.5
Piv-A(6)TC-CTA(6)-C(1O2)TT-A(5)AC-NH2 (ATCCTACTTAAC; splice-switching; all peptide nucleic acid (PNA), [A(6)] at 1, 6, [C(1O2)] at 7, [A(5)] at 10, 5' {Piv}, 3' {NH2}; peptide nucleic acid backbone) [HIF-ASO 9]	59.0	60.9
Piv-Lys-AA(6)C-TTA(6)-TCC(1O2)-TA(6)C-TTA(5)-Val-NH2 (antisense {Piv}[Lys][PNA-A][PNA-A(6)][PNA-C][PNA-T][PNA-T][PNA-A(6)][PNA-T][PNA-C][PNA-C(1O2)][PNA-T][PNA-A(6)][PNA-C][PNA-T][PNA-T][PNA-A(5)][Val]-{NH2}; peptide nucleic acid backbone) [HIF-ASO 10]	60.0	61.0

From US12624068B2, “Exon skipping by peptide nucleic acid derivatives” (OliPass Corporation, priority 2016, dated 2026)
